Assay results: paper PMC6370202, “The catabolism of 3,3’-thiodipropionic acid in Variovorax paradoxus strain TBEA6: A proteomic analysis” (PLoS ONE, 2019)

Tests used:
Ech-20 (VPARA_05520) = molecular target: T1, Ech-20 (VPARA_05520) (Variovorax paradoxus, UniProt A0A0H2MCT8); assay: thermal shift assay, SYPRO Orange; assay type: binding; settings: 2 uM protein, 2 mM ligand, 100 mM Tris/HCl pH 8.0; increased stability; no shift with TDP
T1 construct: recombinant from pET-32a(+)::ech-20 in E. coli BL21 (DE3) pLysS; Ni-Sepharose purified
T1 sequence (A0A0H2MCT8 1-154): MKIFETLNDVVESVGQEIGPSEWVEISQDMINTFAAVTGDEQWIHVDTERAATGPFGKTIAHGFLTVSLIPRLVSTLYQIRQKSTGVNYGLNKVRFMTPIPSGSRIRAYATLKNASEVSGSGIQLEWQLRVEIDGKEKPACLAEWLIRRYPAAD

[1] = molecular target: T2, PctRe (propionyl-CoA transferase of Ralstonia eutropha) (Cupriavidus necator, UniProt Q0K874); assay: enzymatic CoA transfer, product by HPLC/MS; assay type: biochemical; settings: 2 mM TDP, 1 mM acetyl-CoA, 20 ug PctRe in 1 ml, 100 mM Tris/HCl pH 8.0, 30 °C, 45 min
T2 construct: gene pct; recombinant from pET-19b::pctRe in E. coli BL21 (DE3) pLysS; N-terminal His-tag; Ni-Sepharose purified
T2 sequence (Q0K874 1-542): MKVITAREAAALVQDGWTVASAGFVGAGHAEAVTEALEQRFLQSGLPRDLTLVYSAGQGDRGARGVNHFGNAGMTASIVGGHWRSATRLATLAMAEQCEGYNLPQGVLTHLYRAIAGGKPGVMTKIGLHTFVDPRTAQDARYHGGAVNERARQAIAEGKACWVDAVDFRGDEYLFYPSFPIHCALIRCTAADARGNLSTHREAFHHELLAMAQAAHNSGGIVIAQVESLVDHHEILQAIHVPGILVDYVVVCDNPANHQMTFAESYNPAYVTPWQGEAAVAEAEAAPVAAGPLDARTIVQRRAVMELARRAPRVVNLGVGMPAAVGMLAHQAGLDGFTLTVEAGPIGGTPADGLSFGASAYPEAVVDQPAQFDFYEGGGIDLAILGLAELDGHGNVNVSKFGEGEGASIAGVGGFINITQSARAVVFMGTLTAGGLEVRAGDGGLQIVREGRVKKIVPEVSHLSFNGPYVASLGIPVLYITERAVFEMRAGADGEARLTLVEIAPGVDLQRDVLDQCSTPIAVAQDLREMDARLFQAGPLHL

SMILES: CC(C)(COP(=O)(O)OP(=O)(O)OC[C@H]1O[C@@H](n2cnc3c(N)ncnc32)[C@H](O)[C@@H]1OP(=O)(O)O)[C@@H](O)C(=O)NCCC(=O)NCCSC(=O)CCSCCC(=O)O [TDP-CoA]
- shift in the melting temperature (Ech-20 (VPARA_05520)): a shift in the melting temperature of Ech-20 in the presence of TDP-CoA was detected

SMILES: O=C(O)CCSCCC(=O)O [TDP]
- enzymatic CoA transfer, product by HPLC/MS [1]: transfer of CoA from acetyl-CoA to TDP was accomplished using recombinant PctRe

SMILES: CC(=O)SCCNC(=O)CCNC(=O)[C@H](O)C(C)(C)COP(=O)(O)OP(=O)(O)OC[C@H]1O[C@@H](n2cnc3c(N)ncnc32)[C@H](O)[C@@H]1OP(=O)(O)O [acetyl-CoA]
- enzymatic CoA transfer, product by HPLC/MS ([1]; CoA donor): transfer of CoA from acetyl-CoA to TDP was accomplished using recombinant PctRe
